{"source": "patent US20060063179A1", "about": "“MIFL- a new partner gene of MLL and methods of use thereof” (priority 2004, published 2006)"}
{"target": "human DNA topoisomerase II (Homo sapiens, UniProt P11388)", "sequence (P11388 whole entry)": "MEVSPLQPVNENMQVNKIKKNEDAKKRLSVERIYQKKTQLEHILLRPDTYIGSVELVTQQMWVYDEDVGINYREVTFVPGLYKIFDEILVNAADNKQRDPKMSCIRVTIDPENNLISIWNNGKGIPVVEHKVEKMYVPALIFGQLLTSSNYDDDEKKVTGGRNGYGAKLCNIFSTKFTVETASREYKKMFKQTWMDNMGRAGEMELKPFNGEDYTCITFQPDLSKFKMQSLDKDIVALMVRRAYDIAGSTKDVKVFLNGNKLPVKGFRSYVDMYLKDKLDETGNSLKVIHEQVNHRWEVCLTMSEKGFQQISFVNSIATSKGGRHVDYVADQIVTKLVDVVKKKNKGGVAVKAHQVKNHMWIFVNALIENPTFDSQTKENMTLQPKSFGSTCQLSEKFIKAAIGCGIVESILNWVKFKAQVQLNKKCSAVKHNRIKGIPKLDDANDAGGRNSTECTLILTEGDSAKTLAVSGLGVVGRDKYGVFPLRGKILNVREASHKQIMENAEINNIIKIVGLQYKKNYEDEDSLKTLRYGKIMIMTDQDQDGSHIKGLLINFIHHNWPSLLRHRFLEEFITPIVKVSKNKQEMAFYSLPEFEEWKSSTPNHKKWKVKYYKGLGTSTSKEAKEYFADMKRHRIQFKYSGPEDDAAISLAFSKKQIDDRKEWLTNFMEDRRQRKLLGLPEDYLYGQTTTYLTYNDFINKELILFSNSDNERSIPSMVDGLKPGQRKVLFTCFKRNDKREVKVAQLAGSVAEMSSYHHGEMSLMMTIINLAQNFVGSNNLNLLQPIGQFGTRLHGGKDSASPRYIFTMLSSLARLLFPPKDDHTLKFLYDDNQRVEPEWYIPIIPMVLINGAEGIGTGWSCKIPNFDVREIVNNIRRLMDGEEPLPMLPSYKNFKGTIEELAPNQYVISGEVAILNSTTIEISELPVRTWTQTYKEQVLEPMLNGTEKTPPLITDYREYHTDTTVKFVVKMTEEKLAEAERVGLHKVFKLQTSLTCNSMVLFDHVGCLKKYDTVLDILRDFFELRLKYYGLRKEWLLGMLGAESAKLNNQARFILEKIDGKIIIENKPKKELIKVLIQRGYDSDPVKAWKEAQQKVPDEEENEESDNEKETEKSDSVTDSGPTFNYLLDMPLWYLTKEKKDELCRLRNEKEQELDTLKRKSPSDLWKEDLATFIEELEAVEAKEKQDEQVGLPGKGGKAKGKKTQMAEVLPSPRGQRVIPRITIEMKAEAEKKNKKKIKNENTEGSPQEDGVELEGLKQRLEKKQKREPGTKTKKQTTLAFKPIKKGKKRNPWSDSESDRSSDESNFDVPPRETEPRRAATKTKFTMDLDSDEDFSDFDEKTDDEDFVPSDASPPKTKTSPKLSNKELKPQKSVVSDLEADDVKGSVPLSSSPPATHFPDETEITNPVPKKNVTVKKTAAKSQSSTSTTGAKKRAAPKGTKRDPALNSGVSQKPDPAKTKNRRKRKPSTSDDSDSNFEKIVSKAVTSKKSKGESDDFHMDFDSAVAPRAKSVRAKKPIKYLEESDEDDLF", "experiment": "DNA topoisomerase II in vitro cleavage assay", "type": "biochemical", "details": "singly 5' end-labeled MLL intron 8 and MIFL intron 8 substrates; 147 nM enzyme, 1 mM ATP, 20 μM drug, 10 min 37° C.", "method": "FIGS. 8A-8D provide images of autoradiographs depicting MLL bcr positions 5382-5570 (FIGS. 8A and 8B) or positions 1387 to 1424 in MIFL intron 8 (FIGS. 8C and 8D) identified utilizing topoisomerase II in vitro cleavage assays. Autoradiographs show cleavage products after 10 minute incubation at 37° C. of 25 ng (30,000 cpm) singly 5' end-labeled DNA with 147 nM human DNA topoisomerase II, 1 mM ATP and, where indicated, 20 μM etoposide, etoposide catechol, etoposide quinone or doxorubicin (FIGS. 8A and 8C), or lower doxorubicin concentrations (FIGS. 8B and 8D). Specified reactions were incubated for an additional 10 minutes at 75° C. before trapping the covalent complexes (FIGS. 8A and 8C). The 5' side (-1 position) of the cleavage sites are shown by the dashes at far right. Fragments of the MLL bcr spanning positions 5382-5570 in intron 8 or fragments of MIFL spanning positions 1309-1479 in intron 8 were subcloned into BamHI-NotI sites of TOPO pCR2.1 (Invitrogen). Twenty micrograms of plasmid DNA first was treated with 400 units T4 DNA ligase (New England Biolabs; Beverly, Mass.) for 1 hour to ensure that the substrates were not nicked. […] Calf intestinal phosphatase was inactivated in 5 mM EDTA (pH 8.0) and the DNA was PCI-extracted and ethanol precipitated. The DNA was then 5' end-labeled with [γ-^32P]ATP (Amersham; Arlington Heights, Ill.) and T4 polynucleotide kinase (New England Biolabs) as described (Felix et al. (1995) Cancer Res., 55:4287-92). Alternatively, to prepare cold substrate DNA, 20 μg of BamHI/NotI-digested, dephosphorylated plasmid were phosphorylated with 10 μM ATP (Boehringer Mannheim; Indianapolis, Ind.) in otherwise similar reactions. […] DNA recovery was quantitated by optical density measurement and scintillation counting. […] Cleavage products were visualized by autoradiography and quantitated using a PhosphorImager and ImageQuant software (Molecular Dynamics; Sunnyvale, Calif.)."}
{"smiles": "COc1cccc2c1C(=O)c1c(O)c3c(c(O)c1C2=O)C[C@@](O)(C(=O)CO)C[C@@H]3O[C@H]1C[C@H](N)[C@H](O)[C@H](C)O1", "note": "[dox, doxorubicin]", "formation of DNA topoisomerase II cleavage complexes at or near the translocation breakpoints": "marginal activity"}
{"smiles": "COC1=CC(C2c3cc4c(cc3C(O[C@@H]3O[C@@H]5COC(C)O[C@H]5[C@H](O)[C@H]3O)C3COC(=O)C23)OCO4)=CC(=O)C1=O", "note": "(stereo partly drawn) [etoposide quinone]", "formation of DNA topoisomerase II cleavage complexes at or near the translocation breakpoints": "increased the formation of DNA topoisomerase II cleavage complexes"}
{"smiles": "COc1cc([C@@H]2c3cc4c(cc3[C@@H](O[C@@H]3O[C@@H]5CO[C@@H](C)O[C@H]5[C@H](O)[C@H]3O)[C@H]3COC(=O)[C@H]23)OCO4)cc(OC)c1O", "note": "[etoposide]", "formation of DNA topoisomerase II cleavage complexes at or near the translocation breakpoints": "increased the formation of DNA topoisomerase II cleavage complexes"}
